# Reference: patent publication US11149052B2, “2′3′-cyclic dinucleotides” (Institute of Organic Chemistry and Biochemistry, ASCR, V.V.I, priority 2018, dated 2021)
# Where two headings read alike, the source gives them in different places.
# Experiments:
# [1] = target: T1, WT STING (truncated human WT STING protein) (Homo sapiens, UniProt Q86WV6, H232R); assay: Differential Scanning Fluorimetry with WT STING; assay type: binding; conditions: for ΔTm at 150 µM: read-out: DSF ΔTm (° C.) WT STING
# T1 construct: truncated human WT STING or AQ STING (amino acid residues 140-343); 8xHis (N, cleaved yes); SUMO (N, cleaved yes); made in house; host or cells: E. coli Rosetta-gami B (DE3)
# Method: (§1) Purified PCR products were cleaved with restriction enzymes BamHI (cat. #R0136S, NEB, Ipswich, USA) and NotI (cat. #R0189S, NEB, Ipswich, USA) and cloned into the pSUMO vector linearized with the identical enzymes.
# (§2) DNase I (cat. #D5025, Sigma Aldrich, Czech Republic) and RNase A (cat. #R6513, Sigma Aldrich, Czech Republic) were added (final concentration […]) together with MgCl2 (final concentration 5 mmol·l^−1) to the homogenate and bacteria were lysed using French Press G-M™ High-Pressure Cell Press Homogenizer (1500 psi, 3 cycles). […] The resin was poured into a chromatography column, washed with 50 ml buffer A (50 mmol·l^−1 TrisCl (pH 8.0), 800 mmol·l^−1 NaCl, 3 mmol·l^−1β-mercaptoethanol; 10% glycerol; 20 mmol·l^−1 imidazole) and 8-His-SUMO tagged STING proteins were eluted with 15 ml buffer A containing 300 mmol·l^−1 imidazole. […] Proteins were concentrated with Amicon® Ultra-15 10 K device (cat. #UFC901008, Merck Millipore, Billerica, USA) and flash frozen in liquid N2.
# (§3) Differential Scanning Fluorimetry with WT STING and AQ STING
# (§4) 20 μL solutions of the reaction mixtures were pipetted in triplicates into 96 well optical reaction plates and thermal denaturation of samples were performed on real time PCR cycler (LightCycler® 480 Instrument II—Roche, Base^1, Switzerland). The first derivative of the thermal denaturation curves was performed to calculate denaturing temperatures of STING-CDN complexes and STING apoproteins. The thermal shift for each CDN was calculated by subtracting the average denaturing temperature of STING apoprotein from the average denaturing temperature of STING CDN complex.
# [2] = target: T2, AQ STING (truncated human STING G230A-R293Q allelic form) (Homo sapiens, UniProt Q86WV6, G230A/H232R/R293Q); assay: Differential Scanning Fluorimetry with AQ STING; assay type: binding; conditions: for ΔTm at 150 µM: read-out: DSF ΔTm (° C.) AQ STING
# T2 construct: truncated human WT STING or AQ STING (amino acid residues 140-343); 8xHis (N, cleaved yes); SUMO (N, cleaved yes); made in house; host or cells: E. coli Rosetta-gami B (DE3)
# Method: as §1, §2, §3, §4
# [3] = target: human wild type STING (WT STING) (Homo sapiens, UniProt Q86WV6, H232R); assay: Digitonin assay using 293T wtSTING-FL reporter cells (ISRE firefly luciferase reporter); assay type: cell-based; conditions: 293T wtSTING-FL cells; 30 min in Digitonin buffer, then 5 hours; luciferase read-out; 8-point dose-response curve; read-out: Digitonin assay EC50 (μmol · l^−1) WT STING
# Excerpt: Two complementary oligonucleotides of the sequence […] […] […] […] […] The oligonucleotides were mixed in equal molar amounts, hybridized, and cleaved by restriction endonucleases HindIII (cat. #. R0104S, NEB, Ipswich, USA) and BglII (cat. #R0144S, NEB, Ipswich, USA). Ultimately, they were ligated into plasmid pGL4.27 (cat. #E6651, Promega, Madison, USA) linearized with the same enzymes. As result the sequence with four ISRE sites was placed upstream of the minimum promoter of firefly luciferase reporter gene.
# After 5 minutes incubation at room temperature (RT), 250 μL of the mixture was added dropwise to the cells in one well.
# Transfected cells were seeded onto poly-D-lysine coated six well plates at density 50,000 cells per 1 cm^2 in DMEM medium with high glucose containing 10% heat inactivated FBS, 30 μg/mL blasticidin (cat. #ant-bl-05, InvivoGen, San Diego, USA), 0.06 mg/ml Penicillin G and 0.1 mg/ml Streptomycin Sulfate (both cat. #. L0018, Biowest, Riverside, USA). The medium was replenished every 3-4 days until visible colonies of cells resistant to blasticidin were formed.
# Blasticidin resistant cells stably expressing WT STING were further transfected with […] plasmid following the same procedure as described above. […] Homogeneous culture of stably double transfected cells was prepared by limiting dilution of cells in 96 well plates and wells with cells were selected that originated from a single cell.
# The medium was removed next day and three fold serial dilutions of compounds in Digitonin buffer containing 50 mmol·l^−1 HEPES (cat. #H3375, Sigma Aldrich, Czech Republic) pH 7.0, 100 mmol·l^−1 KCl, 3 mmol·l^−1 MgCl2, 0.1 mmol·l^−1 DTT (cat. #D0632, Sigma Aldrich, Czech Republic), 85 mmol·l^−1 Sucrose (cat. #S7903, Sigma Aldrich, Czech Republic), 0.2% BSA (cat. #A2153, Sigma Aldrich, Czech Republic), 1 mmol·l^−1 ATP (cat. #A1852, Sigma Aldrich, Czech Republic), 0.1 mmol·l^−1 GTP (cat. #G8877, Sigma Aldrich, Czech Republic), and 10 μg/mL Digitonin A (cat. #D141, Sigma Aldrich, Czech Republic) were added to the cells. The buffer was removed after 30 minutes incubation at 37° C. with 5% CO2, the cells were washed once with 100 μl of cultivation medium, and 100 IA of medium was added to each well. The plates with cells were incubated for 5 hours at 37° C. with 5% CO2, 50 μl of the medium was removed and 30 μl of ONE-Glo™ Luciferase Assay System reagent (cat. #E6120, Promega, Madison, USA) was added to each well. Luminesce was read on Synergy H1 (Biotek, Winooski, USA).
# [4] = thermal shift vs apoprotein, 150 μM CDN, 0.1 mg/ml STING protein, SYPRO Orange
# Chain of human wild type STING (WT STING) (Q86WV6 whole entry H232R): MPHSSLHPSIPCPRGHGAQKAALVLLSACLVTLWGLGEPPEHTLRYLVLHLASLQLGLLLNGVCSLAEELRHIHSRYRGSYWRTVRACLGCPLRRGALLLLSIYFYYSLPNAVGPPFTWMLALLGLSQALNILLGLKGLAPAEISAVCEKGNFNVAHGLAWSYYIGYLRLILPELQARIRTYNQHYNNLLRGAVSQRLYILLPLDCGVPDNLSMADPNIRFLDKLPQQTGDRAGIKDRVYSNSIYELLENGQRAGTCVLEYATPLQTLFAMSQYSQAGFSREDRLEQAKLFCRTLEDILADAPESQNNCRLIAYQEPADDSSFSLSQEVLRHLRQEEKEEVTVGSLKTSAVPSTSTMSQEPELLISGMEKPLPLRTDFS
# T1 sequence (Q86WV6 140-343 H232R): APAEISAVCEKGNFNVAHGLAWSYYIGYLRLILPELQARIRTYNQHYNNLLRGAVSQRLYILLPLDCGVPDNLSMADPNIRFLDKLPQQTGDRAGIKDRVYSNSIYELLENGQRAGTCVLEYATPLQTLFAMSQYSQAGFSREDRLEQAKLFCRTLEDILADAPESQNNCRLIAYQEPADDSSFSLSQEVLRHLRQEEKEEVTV
# T2 sequence (Q86WV6 140-343 G230A/H232R/R293Q): as the sequence (Q86WV6 140-343 H232R) above, with G91A, R154Q counted along it
"DSF ΔTm (° C.) WT STING [1, 4] [°C]","DSF ΔTm (° C.) AQ STING [2, 4] [°C]",EC50 [3] [nM],"ΔTm at 150 µM [1, 4] [°C]","ΔTm at 150 µM [2, 4] [°C]",Structure (SMILES),ΔTm at 150 µM [1] [°C],ΔTm at 150 µM [2] [°C]
,,20,7.3,16,"Nc1nc2c(ncn2[C@@H]2O[C@@H]3COP(=O)(O)O[C@H]4[C@@H](F)[C@H](n5cnc6c(N)ncnc65)O[C@@H]4COP(=O)(O)CO[C@@H]2[C@@H]3O)c(=O)[nH]1 [Example 4, (1R,6R,7R,8R,10R,16R,17R,19R)-17-(2-amino-6-oxo-6,9-dihydro-1H-purin-9-yl)-8-(6-amino-9H-purin-9-yl)-7-fluoro-4,13,19-trihydroxy-3,5,9,12,15,18-hexaoxa-4λ^5,13λ^5-diphosphatricyclo[14.2.1.0^6,^10]nonadecane-4,13-dione]",,
,,14,16.7,23.2,"Nc1nc2c(ncn2[C@@H]2O[C@@H]3COP(=O)(O)CO[C@H]4[C@@H](O)[C@H](n5cnc6c(N)ncnc65)O[C@@H]4COP(=O)(O)O[C@@H]2[C@@H]3O)c(=O)[nH]1 [Example 5, (1R,6R,8R,9R,10S,16R,18R,19R)-18-(2-amino-6-oxo-6,9-dihydro-1H-purin-9-yl)-8-(6-amino-9H-purin-9-yl)-3,9,13,19-tetrahydroxy-2,4,7,11,14,17-hexaoxa-3λ^5,13λ^5-diphosphatricyclo[14.2.1.0^6,^10]nonadecane-3,13-dione]",,
,,> 50000,0.1,1.2,"Nc1nc2c(ncn2[C@@H]2O[C@@H]3COP(=O)(O)CO[C@@H]4[C@H](O)[C@@H](COP(=O)(O)O[C@H]3[C@H]2O)O[C@H]4n2cnc3c(N)ncnc32)c(=O)[nH]1 [Example 6, (1R,6S,7R,8R,10R,16R,17R,19R)-8-(2-amino-6-oxo-6,9-dihydro-1H-purin-9-yl)-17-(6-amino-9H-purin-9-yl)-4,7,13,19-tetrahydroxy-3,5,9,12,15,18-hexaoxa-4λ^5,13λ^5-diphosphatricyclo[14.2.1.0^6,^10]nonadecane-4,13-dione]",,
,,6100,1.8,8.9,"Nc1nc2c(ncn2[C@@H]2O[C@@H]3COP(=O)(O)CO[C@@H]4[C@H](O)[C@@H](COP(=O)(O)O[C@H]3[C@H]2F)O[C@H]4n2cnc3c(N)ncnc32)c(=O)[nH]1 [Example 7, (1R,6R,7R,8R,10R,16R,17R,19R)-8-(2-amino-6-oxo-6,9-dihydro-1H-purin-9-yl)-17-(6-amino-9H-purin-9-yl)-7-fluoro-4,13,19-trihydroxy-3,5,9,12,15,18-hexaoxa-4λ^5,13λ^5-diphosphatricyclo[14.2.1.0^6,^10]nonadecane-4,13-dione]",,
,,400,3,9.4,"Nc1ncnc2c1ncn2[C@@H]1O[C@@H]2COP(=O)(O)O[C@@H]3[C@H](O)[C@@H](COP(=O)(O)CO[C@H]2[C@H]1O)O[C@H]3n1cnc2c(N)ncnc21 [Example 8, (1R,6R,8R,9R,10S,16R,18R,19R)-8,18-bis(6-amino-9H-purin-9-yl)-3,9,13,19-tetrahydroxy-2,4,7,11,14,17-hexaoxa-3λ^5,13λ^5-diphosphatricyclo[14.2.1.0^6,^10]nonadecane-3,13-dione]",,

# Further lines, the compound ahead of its results:
Structure (SMILES),"DSF ΔTm (° C.) WT STING [1, 4] [°C]","DSF ΔTm (° C.) AQ STING [2, 4] [°C]",EC50 [3] [nM],"ΔTm at 150 µM [1, 4] [°C]","ΔTm at 150 µM [2, 4] [°C]",ΔTm at 150 µM [1] [°C],ΔTm at 150 µM [2] [°C]
"Nc1nc2c(ncn2[C@@H]2O[C@@H]3COP(=O)(O)O[C@@H]4[C@H](O)[C@@H](COP(=O)(O)O[C@@H]2[C@@H]3O)O[C@H]4n2cnc3c(N)ncnc32)c(=O)[nH]1 [2′2′-cGAMP, reference compound]",11.5,19.4,30,,,,
"Nc1ncnc2c1ncn2[C@@H]1O[C@@H]2COP(=O)(O)O[C@H]3[C@@H](O)[C@H](n4cnc5c(N)ncnc54)O[C@@H]3COP(=O)(O)O[C@H]2[C@H]1O [3′3′-c-di-AMP, reference compound]",2.6,9.3,300,,,,
"Nc1nc2c(ncn2[C@@H]2O[C@@H]3COP(=O)(O)O[C@H]4[C@@H](O)[C@H](n5cnc6c(=O)[nH]c(N)nc65)O[C@@H]4COP(=O)(O)O[C@H]3[C@H]2O)c(=O)[nH]1 [3′3′-c-di-GMP, reference compound]",2.6,7.7,5800,,,,
"Nc1nc2c(ncn2[C@@H]2O[C@@H]3COP(=O)(O)O[C@@H]4[C@H](O)[C@@H](COP(=O)(O)CO[C@H]3[C@H]2O)O[C@H]4n2cnc3c(N)ncnc32)c(=O)[nH]1 [Example 2, (1R,6R,8R,9R,10S,16R,18R,19R)-8-(2-amino-6-oxo-6,9-dihydro-1H-purin-9-yl)-18-(6-amino-9H-purin-9-yl)-3,9,13,19-tetrahydroxy-2,4,7,11,14,17-hexaoxa-3λ^5,13λ^5-diphosphatricyclo[14.2.1.0^6,^10]nonadecane-3,13-dione]",,,1200,1.4,8.8,,
"Nc1nc2c(ncn2[C@@H]2O[C@@H]3COP(=O)(O)O[C@H]4[C@@H](O)[C@H](n5cnc6c(N)ncnc65)O[C@@H]4COP(=O)(O)CO[C@@H]2[C@@H]3O)c(=O)[nH]1 [Example 3, (1R,6S,7R,8R,10R,16R,17R,19R)-17-(2-amino-6-oxo-6,9-dihydro-1H-purin-9-yl)-8-(6-amino-9H-purin-9-yl)-4,7,13,19-tetrahydroxy-3,5,9,12,15,18-hexaoxa-4λ^5,13λ^5-diphosphatricyclo[14.2.1.0^6,^10]nonadecane-4,13-dione]",,,3000,0.8,7.2,,
"Nc1nc2c(ncn2[C@@H]2O[C@@H]3COP(=O)(O)CO[C@@H]4[C@H](O)[C@@H](COP(=O)(O)CO[C@H]3[C@H]2O)O[C@H]4n2cnc3c(=O)[nH]c(N)nc32)c(=O)[nH]1 [Example 9, (1R,7R,9R,10R,11S,17R,19R,20R)-9,19-bis(2-amino-6-oxo-6,9-dihydro-1H-purin-9-yl)-4,10,14,20-tetrahydroxy-2,5,8,12,15,18-hexaoxa-4λ^5,14λ^5-diphosphatricyclo[15.2.1.0^7,^11]icosane-4,14-dione]",,,> 50000,,,0.3,1.1
